Measured values as given in US20050038015A1, “Partial dopamine-D 2 receptor agonist plus serotonin and/oder noradrenaline inhibitor activity” (priority 2002, published 2005).
Like-named read-outs stand apart in the source and are kept apart here.

Assays:
[1] = test system: dialysate serotonin in the nucleus accumbens; experiment: In vivo microdialysis, dialysate serotonin; settings: awake freely moving rat; for [serotonin] ED75 (footnote 1): footnote 1: ED75 instead of ED150; for ED150: p.o. or i.p. (italic)
Description: (§1) Microdialysis allows an insight into changes in neurotransmitters and their metabolites in the brain extracellular space in discrete brain regions in awake freely moving animals. […] The in vivo effects of the (mixtures of) compounds of the invention on dopamine, serotonin and noradrenalin levels were determined by microdialysis according to the protocol given below:
(§2) Dopamine and Serotonin Measurements by In Vivo Microdialysis
(§3) Surgery. […] Antibacterial agents and analgesics were administered prior to (Baytril (150 μl/rat i.m.)) and after (Temgesic (0.005-0.01 mg/kg i.m. non-diluted/rat)) surgery. […] In other animals, the skull is exposed and a 1 mm bore-hole is drilled through the bone above the prefrontal cortex (co-ordinates from bregma (mm): anterior-posterior +3.2, mediolateral 0.6 and dorsoventral −1.5 at a 0° angle (from dura)) in those animals where determination of dialysate noradrenaline levels is required. Smaller bore holes are made and three screws are inserted within the skull. The intracerebral guide cannula (CMA, Carnegie) is lowered through the hole until the tip is immediately above the nucleus accumbens or prefrontal cortex. The guide together with the screws are cemented onto the bone with dental cement and the surrounding skin sutured. Animals are allowed to recover at least six days prior to microdialysis experimentation.
(§4) Microdialysis experimentation. On the day of the experiment microdialysis probes (CMA 12, 0.5 mm outer diameter, Stockholm, Sweden) are inserted through the guide cannula into the nucleus accumbens (2 mm membrane length) or prefrontal cortex (4 mm membrane length). The Inlet of the probe is connected with low volume tubing (F.E.B-tubing, 1.2 μl/10 cm, Carnegie) via a liquid-swivel (dual channel; Instech, UK) on a counterbalanced arm, to a syringe-pump (Harvard, 10 channel). […] The outlet of the probe is connected with low volume tubing via the liquid swivel to a CMA 140 fraction collector. The tubing is supported by a stainless steel wire which leads from the swivel down to a clip, which fits to a collar around the neck of an animal. […] Samples are collected at a flow rate of 2 μl/min at 20 min intervals (40 μl volume) in vials containing 50 μl of a HCOOH/cysteine solution (0.02M/0.2 w/v %) to prevent oxidation of the compounds. Following a baseline period of 5 samples, drugs are administered systemically and at least a further 8 samples collected. All samples were stored post-collection on dry ice and frozen at […] prior to analysis by high-performance liquid chromatography (HPLC) coupled to electrochemical detection described below.
(§5) Analysis of dialysate dopamine and serotonin. […] The final pH was adjusted to 4.9 with 1N NaOH. Dopamine and serotonin are electrochemically detected with an EG&G (model 400, Princeton Applied Research) controller equipped with a glassy carbon working electrode (VT-03; Antec, Leiden, the Netherlands). The potential is set at 600 mV versus an Ag/AgCl reference electrode. The output is recorded on a computer equipped with Hyperchem™ (Hewlett-Packard Inc.) which measures peak height values. Calculations (μg/20 min) are made using peak height values of analysed standard solutions containing known amounts of dopamine and serotonin. Analysis of dialysate dopamine and noradrenaline. […] The basal mobile phase consists of: 50 mM NaAc, and 0.27 mM EDTA. The final concentration of 1-octanesulfonic acid (NOS) and methanol, as well as the final pH (adjusted with HAc), vary with the different brain areas under examination. The compounds are electrochemically detected with an EG&G (model 400, Princeton Applied Research) controller equipped with a glassy carbon working electrode (VT-03; Antec, Leiden, the Netherlands). The potential is set at 450 mV versus a Hyref reference electrode.

[2] = target: noradrenaline reuptake sites (Rattus norvegicus, UniProt Q9WTR4); experiment: In vitro functional inhibition of [3H]-noradrenalin reuptake in rat hypothalamus synaptosomes; type: biochemical
Description: (§6) The in vitro functional activity at dopamine-D2 receptors, Including the intrinsic activity (ε) of the compounds which can be used according to the invention as well as relevant reference compounds was measured by their ability to inhibit forskolin-induced [^3H]cAMP accumulation. Serotonin and noradrenaline reuptake inhibitory activity was measured In rat brain synaptosomes.
Synaptosomes were pre-incubated in absence or presence of the test compound for 10 min at 37° C., in a medium containing the monoamine oxidase inhibitor pargyline (7 μM). Subsequently, the synaptosomes were exposed to [^3H]-noradrenaline ([…] final concentration) for 15 min.
(§7) [^3H]-noradrenaline uptake was stopped by filtration with a harvester and the non-incorporated radioactivity was removed by an extensive washing programme. The filter plates with synaptosomes were dehydrated and the amount of [^3H]-noradrenaline present was determined by Betaplate liquid scintillation counting.

serotonin reuptake sites = target: T1, serotonin reuptake sites (Rattus norvegicus, UniProt P31652); experiment: In vitro functional inhibition of [3H]-serotonin reuptake in rat brain synaptosomes; type: biochemical
T1 construct: the cerebral hemispheres were rapidly removed and a P2-synaptosomal fraction was prepared; from tissue; host or cells: rat (Wistar) cerebral hemispheres, P2-synaptosomal fraction
Description: as §6
In Vitro Functional Inhibition of [^3H]-serotonin Reuptake
Synaptosomes were pre-incubated in absence or presence of the test compound for 15 min at 37° C., in a medium containing the monoamine oxidase inhibitor pargyline (7 μM). Subsequently, the synaptosomes were exposed to [^3H]-serotonin ([…] final concentration) for 10 min.
as §7, with “[^3H]-serotonine uptake” for “[^3H]-noradrenaline uptake”, “of [^3H]-serotonin” for “of [^3H]-noradrenaline”

[3] = test system: noradrenaline levels in the prefrontal cortex; experiment: In vivo microdialysis, dialysate noradrenaline; settings: awake freely moving rat, p.o. or i.p. (italic)
Description: as §1, §2, §3
Microdialysis experimentation. On the day of the experiment microdialysis probes (CMA 12, 0.5 mm outer diameter, Stockholm, Sweden) are inserted through the guide cannula into the nucleus accumbens (2 mm membrane length) or prefrontal cortex (4 mm membrane length). The Inlet of the probe is connected with low volume tubing (F.E.B-tubing, 1.2 μl/10 cm, Carnegie) via a liquid-swivel (dual channel; Instech, UK) on a counterbalanced arm, to a syringe-pump (Harvard, 10 channel). […] The outlet of the probe is connected with low volume tubing via the liquid swivel to a CMA 140 fraction collector. […]
Analysis of dialysate dopamine and serotonin. […] Dopamine and serotonin are electrochemically detected with an EG&G (model 400, Princeton Applied Research) controller equipped with a glassy carbon working electrode (VT-03; Antec, Leiden, the Netherlands). […] The output is recorded on a computer equipped with Hyperchem™ (Hewlett-Packard Inc.) which measures peak height values. Calculations (μg/20 min) are made using peak height values of analysed standard solutions containing known amounts of dopamine and serotonin. […] The compounds are electrochemically detected with an EG&G (model 400, Princeton Applied Research) controller equipped with a glassy carbon working electrode (VT-03; Antec, Leiden, the Netherlands). […]

[4] = target: human dopamine D2,L receptors (Homo sapiens, UniProt P14416); experiment: Inhibition of forskolin-induced [3H]-cAMP accumulation in CHO-K1 cells
[5] = test system: dialysate dopamine in the nucleus accumbens; experiment: In vivo microdialysis, dialysate dopamine; design: species or system rat; settings: read-out: [dopamine] ED75
Description: as §1, §2, §3, §4, §5

[6] = rat brain synaptosomes, read-out: 5-HT uptake pIC50 (converted)
[7] = nucleus accumbens, awake freely moving rat, p.o. or i.p. (italic)
[8] = fraction of full agonism (ε = 1, quinpirole)

T1 sequence (P31652 whole entry): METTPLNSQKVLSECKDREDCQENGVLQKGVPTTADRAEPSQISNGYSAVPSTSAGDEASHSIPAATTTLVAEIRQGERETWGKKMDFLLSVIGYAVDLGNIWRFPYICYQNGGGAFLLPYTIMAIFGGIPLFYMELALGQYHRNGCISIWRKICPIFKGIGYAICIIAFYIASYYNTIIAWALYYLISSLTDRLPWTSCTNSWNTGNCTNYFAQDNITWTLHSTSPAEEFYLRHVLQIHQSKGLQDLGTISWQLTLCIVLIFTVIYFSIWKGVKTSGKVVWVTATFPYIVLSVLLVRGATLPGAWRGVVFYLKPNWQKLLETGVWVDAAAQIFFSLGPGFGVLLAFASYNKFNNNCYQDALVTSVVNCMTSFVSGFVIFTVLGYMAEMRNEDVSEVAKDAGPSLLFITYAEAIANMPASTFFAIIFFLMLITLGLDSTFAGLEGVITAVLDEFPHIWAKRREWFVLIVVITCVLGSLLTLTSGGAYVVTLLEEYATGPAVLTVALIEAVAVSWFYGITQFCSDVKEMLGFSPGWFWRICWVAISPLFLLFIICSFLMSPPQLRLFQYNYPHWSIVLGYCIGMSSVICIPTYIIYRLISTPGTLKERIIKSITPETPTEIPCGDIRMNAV
Chain of human dopamine D2,L receptors (P14416 whole entry): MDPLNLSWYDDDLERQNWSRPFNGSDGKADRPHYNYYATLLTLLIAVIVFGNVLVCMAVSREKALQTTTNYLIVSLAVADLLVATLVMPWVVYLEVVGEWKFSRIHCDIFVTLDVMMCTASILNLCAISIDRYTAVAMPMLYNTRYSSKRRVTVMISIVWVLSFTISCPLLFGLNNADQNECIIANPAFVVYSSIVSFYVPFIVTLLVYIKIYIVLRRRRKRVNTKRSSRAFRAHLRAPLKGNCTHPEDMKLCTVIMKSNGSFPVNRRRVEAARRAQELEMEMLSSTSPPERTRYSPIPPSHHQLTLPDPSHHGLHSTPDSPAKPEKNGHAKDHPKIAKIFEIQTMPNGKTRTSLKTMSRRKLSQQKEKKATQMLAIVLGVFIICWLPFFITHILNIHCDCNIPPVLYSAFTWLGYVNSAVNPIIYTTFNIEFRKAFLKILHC

Row | Structure (SMILES) | NA uptake pIC50 ([2]; rat hypothalamus synaptosomes) | IC50 (serotonin reuptake sites; [6]) [nM] | EC50 [4] [nM] | ED75 [5, 7] [mg/kg] | cAMP accum. ε (intrinsic activity) [4, 8] | ED150 [1] [mg/kg] | cAMP accum. ε (intrinsic activity) [4] | other results
1 | CN1CCN(c2cccc3[nH]c(=O)oc23)CC1 [SLV 308] | <5.0 | > 10000 | 31.6 | 0.04 |  |  |  | [serotonin] ED75 (footnote 1) [1]: 0.45^1 mg/kg; [noradren] ED150 [3]: 0.53 mg/kg; EC50 ([4]; pEC50 (inhibition of cAMP formation)): 10 nM
2 | COCCCC/C(=N\OCCN)c1ccc(C(F)(F)F)cc1 [fluvoxamine] | 5.3 |  | > 1000 |  | 0.10 |  |  | 
3 | Cc1cccc2c(CCCN3CCN(c4cccc5[nH]c(=O)oc45)CC3)c[nH]c12 [example 1d] | <5.0 | 398 | < 1 |  | 0.56 |  |  | 
4 | CNCCCN1c2ccccc2CCc2ccccc21 [DMI] |  |  | > 1000 | > 3 |  | > 3 | 0.12 | [noradren] ED150 [3]: 1.64 mg/kg
5 | O=c1[nH]c2cccc(N3CCN(CCCc4c[nH]c5ccccc45)CC3)c2o1 [example 1e] | <5.0 | 251 | < 1 |  | 0.60 |  |  | 
6 | CCN(CC)C(=O)C1(c2ccccc2)CC1CN (stereo not drawn) [milnacipran] |  |  | > 1000 | > 30 |  | 5.5 | 0.21 | NA uptake pIC50 [2]: 5.5; IC50 (serotonin reuptake sites): 251 nM; [noradren] ED150 [3]: 2.41 mg/kg
7 | O=c1[nH]c2cccc(N3CCN(CCCc4c[nH]c5ccc(F)cc45)CC3)c2o1 [example 1c] | <5.0 | 25.1 | 158 | 3.92 | 0.53 | 14.8 |  | 
8 | Fc1ccc([C@@H]2CCNC[C@H]2COc2ccc3c(c2)OCO3)cc1 [paroxetine] |  |  | > 1000 | > 10 |  | < 10 | 0.36 | NA uptake pIC50 [2]: <5.0
9 | CCOc1ccccc1OC(c1ccccc1)C1CNCCO1 (stereo not drawn) [reboxetine] |  |  |  | > 3 |  | > 3 |  | [noradren] ED150 [3]: <3.0 mg/kg
10 | C=CCN1CCc2nc(N)sc2CC1 [talipexole] |  |  | 39.8 | < 0.1 |  | > 10 | 1.00 | NA uptake pIC50 [2]: <5.0; IC50 (serotonin reuptake sites): > 10000 nM; agonist properties at human dopamine D2 receptors (FIG. 2 upper panel) [4]: full agonists
11 | CCN(CC)C(=O)N[C@H]1C[C@@H]2c3cccc4[nH]cc(c34)C[C@H]2N(C)C1 [terguride] | <5.0 | > 10000 | 0.398 | > 10 | 0.38 | > 10 |  | agonist properties at human dopamine D2 receptors (FIG. 2 upper panel) ([4]; agonist mode): partial agonists; antagonist effects against the reference agonist quinpirole (FIG. 2 lower panel) ([4]; antagonist mode versus quinpirole): partial antagonists
12 | Cn1cc(CCCN2CCN(c3cccc4[nH]c(=O)oc34)CC2)c2cc(F)ccc21 [example 1a] | <5.0 | 126 | > 1000 | 8.14 | 0.27 | 2.52 |  | 
13 | O=c1[nH]c2cccc(N3CCN(CCCc4cn5c6c(cc(F)cc46)CCC5)CC3)c2o1 [example 1b] | 5.2 | > 10000 |  |  | 0.27 |  |  | 
14 | O=c1[nH]c2cccc(N3CCN(Cc4cccc(-c5ccccc5)c4)CC3)c2o1 [bifeprunox] | 4.6 | 15800 | 15.8 |  |  |  | 0.20 | [serotonin] ED75 (footnote 1) [1]: >10^1 mg/kg; ED75 ([5]; Rattus norvegicus): > 10 mg/kg
15 | CCCN1CCC[C@@H](c2cccc(O)c2)C1 [preclamol] | 5.3 | > 10000 |  | 14.5 | 0.36 | > 30 |  | 
16 | CCCN1CCC[C@@H]2Cc3n[nH]cc3C[C@H]21 [quinpirole] |  |  |  | 0.04 |  | > 3 |  | 
